SMILES strings stand for the structures.

Test [1] concerns native glucose oxidase (GOx). Kind of test: Activity assay, HRP-coupled oxidation rate of TMB with D-gluocose. It is filed as biochemical.
Method: (§6) The activity of native GOx, pMPC-nGOx, native AOx, and pMPC-nAOx were determined with a similar method. Briefly, the initial reaction rates were determined by monitoring the oxidation rates of TMB of GOx and AOx when incubating with the assay solutions with different concentrations of substrates, respectively. For native GOx and pMPC-nGOx, the assay solutions were prepared by mixing TMB (0.5 mM), native HRP (0.001 mg/mL), and different amount of D-gluocose (0.005%, 0.010%, 0.015%, 0.020%, 0.030%, 0.040%, w/v) in 0.1 M phosphate buffer (pH 7.0). […] The measurements were achieved by monitoring the A655 of the reaction solutions during the incubation of 1 μL of native enzyme or pMPC-nProtein (0.5 mg/mL for native GOx and pMPC-nGOx, 1 mg/mL for native AOx and pMPC-nAOx) with their corresponding assay solution.
The test system of test [2] is pMPC-nGOx (glucose oxidase encapsulated in a pMPC nanocapsule). Described as above. It counts as biochemical.
Method: as §6
Test [3] deals with T1, native horseradish peroxidase (HRP) (Armoracia rusticana, UniProt P00433).
T1 construct: H2O2 substrate with TMB
T1 sequence (P00433 31-338): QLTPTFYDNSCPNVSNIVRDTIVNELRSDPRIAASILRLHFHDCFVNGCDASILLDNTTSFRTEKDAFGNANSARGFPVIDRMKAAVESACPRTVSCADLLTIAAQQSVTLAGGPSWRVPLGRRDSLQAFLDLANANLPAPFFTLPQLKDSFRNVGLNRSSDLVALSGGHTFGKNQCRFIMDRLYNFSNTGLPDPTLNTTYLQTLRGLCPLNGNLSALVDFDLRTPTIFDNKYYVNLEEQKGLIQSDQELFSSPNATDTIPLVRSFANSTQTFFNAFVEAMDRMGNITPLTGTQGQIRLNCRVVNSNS
Kind of test: Activity assay, oxidation rate of TMB with H2O2 as substrate. It counts as biochemical.

In test [4] the test system is pMPC-nHRP (horseradish peroxidase encapsulated in a pMPC nanocapsule). The source says:
(§1) To verify this, four enzymes, including horseradish peroxidase (HRP), glucose oxidase (GOx), uricase (UOx), and alcohol oxidase (AOx), were encapsulated with the same method, and their enzymatic activities were compared with their native counterparts, respectively.
(§2) After acryloxylation, protein was encapsulated with pMPC using a in situ polymerization method. For the polymerization, 2-Methacryloyloxyethyl phosphorylcholine (MPC) and bis-methacrylamide (BIS) were first prepared as 10% (w/v) stock solution in DI-water and anhydrous DMSO, respectively. The final protein concentration was tuned to 1 mg/mL by diluting with phosphate buffer (50 mM, pH 7.0). Polymerization was initiated by the addition of ammonium persulfate (APS) and tetramethylethylenediamine (TEMED) and kept at room temperature for 2 h. After the polymerization, the solution was dialyzed against PBS to remove unreacted monomers and by-products. The detailed synthesis parameters of pMPC-nEGFP, pMPC-nOVA, pMPC-nHRP, pMPC-nGOx, pMPC-nUOx, pMPC-nAOx, pMPC-nTf, and pMPC-nBSA were listed in Table 5.
(§3) The activity of pMPC-nHRP and native HRP were determined by monitoring the oxidation rate of 3,3′,5,5′-tetramethylbenzidine (TMB) using hydrogen peroxide (H2O2) as the substrate. Briefly, a series of H2O2 stock solutions with concentrations of 0.001%, 0.002%, 0.003%, 0.004%, 0.006%, 0.008% (w/v) was prepared by diluting a 50% H2O2 (w/v) with 0.1 M acetate buffer (pH 5.01) with 0.5 mM TMB. After mixing 1 mL of the substrate solution with 1 μL of pMPC-nHRP (0.1 mg/mL) or native HRP, the absorbance at 655 nm (A655) of the reaction solution was monitored with a UV-Vis spectrometer for 3 min. The absorption curve was plotted versus time and ΔA655/min from the linear portion of the curve was calculated. The activity assays were repeated with a series of concentrations of substrate to get the catalytic rates to obtain KM^app and kcat^app by the Lineweaver—Burk plot.

Test [5] relates to native alcohol oxidase (AOx). The procedure: as §1, §3
(§4) The activity of native GOx, pMPC-nGOx, native AOx, and pMPC-nAOx were determined with a similar method. Briefly, the initial reaction rates were determined by monitoring the oxidation rates of TMB of GOx and AOx when incubating with the assay solutions with different concentrations of substrates, respectively. For native GOx and pMPC-nGOx, the assay solutions were prepared by mixing TMB (0.5 mM), native HRP (0.001 mg/mL), and different amount of D-gluocose (0.005%, 0.010%, 0.015%, 0.020%, 0.030%, 0.040%, w/v) in 0.1 M phosphate buffer (pH 7.0). For native AOx and pMPC-nAOx, the assay solutions were composed by TMB (0.5 mM), native HRP (0.001 mg/mL), and different amount of ethanol (0.0025%, 0.005%, 0.0075%, 0.010%, 0.020%, 0.030%, w/v) in 0.1 M phosphate buffer (pH 7.0). The measurements were achieved by monitoring the A655 of the reaction solutions during the incubation of 1 μL of native enzyme or pMPC-nProtein (0.5 mg/mL for native GOx and pMPC-nGOx, 1 mg/mL for native AOx and pMPC-nAOx) with their corresponding assay solution.

Test [6] has as its system pMPC-nAOx (alcohol oxidase encapsulated in a pMPC nanocapsule).
Text: as §1, §2, §3
as §4, with “The measurements were achieved by monitoring the A655 of the reaction solutions during the incubation of 1 μL of native enzyme or pMPC-nProtein (0.5 mg/mL for native GOx and pMPC-nGOx, 1 mg/mL for native AOx and pMPC-nAOx) with their corresponding assay solution.” left out

For test [7], the system named is native uricase (UOx). Briefly: Activity assay, decrease of A290 with urate. It counts as biochemical. The text has this: (§5) The initial rates were achieved by plotting the absorption at 290 nm versus time and calculating the ΔA290/min from the linear portion of the curve.
Test [8] relates to pMPC-nUOx (uricase encapsulated in a pMPC nanocapsule). Briefly: Activity assay, decrease of A290 with urate. It is filed as biochemical.
Text: as §5

Consider `OC[C@H]1OC(O)[C@H](O)[C@@H](O)[C@@H]1O` (stereo partly drawn) [D-gluocose], for which the “Kcat^app/KM^app relative to native” value in test [1] (native GOx = 100%) was 100 ± 34.5%; in test [2] (pMPC-nGOx vs native GOx), 73.7 ± 31.1%. Besides, the “kcat^app” value stood at 87.9 s⁻¹ in test [1] (native GOx, 0.1 M phosphate buffer pH 7.0, 0.5 mM TMB, HRP 0.001 mg/mL) and 77.6 s⁻¹ in test [2] (pMPC-nGOx, 0.1 M phosphate buffer pH 7.0, 0.5 mM TMB, HRP 0.001 mg/mL). The Michaelis constant (Km) – broadly, the substrate concentration at which the rate is half of its maximum – in test [1] (native GOx, 0.1 M phosphate buffer pH 7.0, 0.5 mM TMB, HRP 0.001 mg/mL, read-out: KM^app) came to 18 ± 6.21 mM; in test [2] (pMPC-nGOx, 0.1 M phosphate buffer pH 7.0, 0.5 mM TMB, HRP 0.001 mg/mL, read-out: KM^app) it was 21.6 ± 6.7 mM. For the same compound, the “Kcat^app/KM^app” value in test [1] (native GOx, pH 7.0) turned out to be 4883 ± 1684 M⁻¹ s⁻¹; in test [2] (pMPC-nGOx, pH 7.0), 3600 ± 1119 M⁻¹ s⁻¹.
On to `OO` [H2O2, hydrogen peroxide], for which the entries for the “Kcat^app/KM^app relative to native” value in test [3] (native HRP = 100%) and in test [4] (pMPC-nHRP vs native HRP) were 100 ± 22.7% and 91.1 ± 28.1%, respectively. Also, the “kcat^app” value was 403 s⁻¹ in test [3] (native HRP, 0.1 M acetate buffer pH 5.01, 0.5 mM TMB, Lineweaver-Burk) and 480 s⁻¹ in test [4] (pMPC-nHRP, 0.1 M acetate buffer pH 5.01, 0.5 mM TMB, Lineweaver-Burk). For the same compound, the “Kcat^app/KM^app” value in test [4] (pMPC-nHRP, pH 5.01, 0.5 mM TMB) came to 3.9669e+06 ± 1.1147e+06 M⁻¹ s⁻¹. The Km in test [4] (read-out: KM^app, pMPC-nHRP, 0.1 M acetate buffer pH 5.01, 0.5 mM TMB, Lineweaver-Burk) was 0.121 ± 0.034 mM.
On to `CCO` [ethanol], for which the “Kcat^app/KM^app relative to native” value is 100 ± 23.61% in test [5] (native AOx = 100%) and 75.6 ± 28.00% in test [6] (pMPC-nAOx vs native AOx). Further, the “kcat^app” value in test [5] (native AOx, 0.1 M phosphate buffer pH 7.0, 0.5 mM TMB, HRP 0.001 mg/mL) turned out to be 18.8 s⁻¹; in test [6] (pMPC-nAOx, 0.1 M phosphate buffer pH 7.0, 0.5 mM TMB, HRP 0.001 mg/mL), 23.4 s⁻¹. The “Kcat^app/KM^app” value in test [5] (native AOx, pH 7.0) worked out at 6047 ± 1428 M⁻¹ s⁻¹; in test [6] (pMPC-nAOx, pH 7.0) it was 4570 ± 1279 M⁻¹ s⁻¹. Moreover, the Km was 3.11 ± 0.72 mM in test [5] (read-out: KM^app, native AOx, 0.1 M phosphate buffer pH 7.0, 0.5 mM TMB, HRP 0.001 mg/mL) and 5.12 ± 1.43 mM in test [6] (read-out: KM^app, pMPC-nAOx, 0.1 M phosphate buffer pH 7.0, 0.5 mM TMB, HRP 0.001 mg/mL).
`O=c1[nH]c(=O)c2[nH]c(=O)[nH]c2[nH]1` [urate]: the figures for the “Kcat^app/KM^app relative to native” value in test [7] (native UOx = 100%) and in test [8] (pMPC-nUOx vs native UOx) were 100 ± 7.7% and 90.4 ± 16.5%, respectively. For the same compound, the “kcat^app” value in test [7] (native UOx, 0.1 M borate buffer pH 8) was found to be 3.36 s⁻¹; in test [8] (pMPC-nUOx, 0.1 M borate buffer pH 8), 3.59 s⁻¹. The Michaelis-Menten constant (Km) worked out at 0.0219 ± 0.0017 mM in test [7] (native UOx, 0.1 M borate buffer pH 8, read-out: KM^app) and 0.0259 ± 0.0043 mM in test [8] (pMPC-nUOx, 0.1 M borate buffer pH 8, read-out: KM^app). Besides, the “Kcat^app/KM^app” value in test [7] (native UOx, pH 8) is 153400 ± 11800 M⁻¹ s⁻¹; in test [8] (pMPC-nUOx, pH 8), 138600 ± 22900 M⁻¹ s⁻¹.
